Reference: ChEMBL document CHEMBL1123342 (J Med Chem, 1986)

Target: Pancreatic elastase (Sus scrofa, UniProt P08419+P00772)
Test: Compound is evaluated for the inhibition of porcine pancreatic (PP) elastase
Assay type: protein

| SMILES | Ki [µM] |
| --- | --- |
| COC(=O)CCC(=O)N[C@@H](C)C(=O)N[C@@H](C)C(=O)N1CCC[C@H]1C(=O)CN(C(=O)Oc1ccccc1)C(C)C | 31.5 |
| COC(=O)CCC(=O)N[C@@H](C)C(=O)N[C@@H](C)C(=O)N1CCC[C@H]1C(=O)CN(C(=O)Sc1nnnn1C)C(C)C | 19.5 |
| COC(=O)CCC(=O)N[C@@H](C)C(=O)N[C@@H](C)C(=O)N1CCC[C@H]1C(=O)CN(C(=O)Oc1ccc([N+](=O)[O-])cc1)C(C)C | 42.5 |
| COC(=O)CCC(=O)N[C@@H](C)C(=O)N[C@@H](C)C(=O)N1CCC[C@H]1C(=O)CN(C(=O)OCC(F)(F)C(F)(F)C(F)(F)F)C(C)C | 82.1 |
| COC(=O)CCC(=O)N[C@@H](C)C(=O)N[C@@H](C)C(=O)N1CCC[C@H]1C(=O)CN(C(=O)Oc1c(F)c(F)c(F)c(F)c1F)C(C)C | 35 |
| COC(=O)CCC(=O)N[C@@H](C)C(=O)N[C@@H](C)C(=O)N1CCC[C@H]1C(=O)CN(C(=O)Sc1nnnn1-c1ccccc1)C(C)C | 2.4 |
